Assay results from patent US10927123B2, “Modulators of the beta-3 adrenergic receptor useful for the treatment or prevention of disorders related thereto” (Arena Pharmaceuticals, Inc., priority 2016, dated 2021).
Entries after “also recorded” stand apart in the source; their conditions may differ.

Experiments:
[1] = target: Beta-3 Adrenergic Receptor (Homo sapiens (Human), UniProt P13945); test: HTRF cAMP antagonist assay (IC50 determination); type: cell-based; settings: CHO-K1 cells stably expressing recombinant receptor; antagonism of isoproterenol at EC90; cAMP readout
In short: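 CHO-K1 cells stably expressing receptor, 1500 cells/well, preincubated briefly with 10-point 5-fold compound series (top final typically 10 or 100 μM) in PBS with 1 mM IBMX, then challenged with isoproterenol at EC90 for 1 h at room temperature. cAMP read by HTRF against on-plate standard curve; IC50 from dose-response.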

normal rats = test: Attenuation of negative contractile effect of BRL 37344 on left ventricular pressure in normal rats; type: in vivo, rat; settings: test compound infusion 3, 10, 30 or 60 mg/kg, BRL 37344 bolus 3 μg/kg
Description: (§1) Beta-3 adrenergic receptor antagonists were evaluated for effects on cardiac contractility in normal and chronic heart failure (CHF) rats. Because beta-3 adrenergic receptor expression is weak in the normal rat heart, compounds were evaluated for the ability to attenuate the negative contractile effects of the beta-3 adrenergic receptor agonist BRL 37344 (Tocris Bioscience, Bristol, UK) in the normal rats. Because beta-3 adrenergic receptor expression is higher in the rat heart with CHF, a compound was evaluated for the ability to improve contractility compared to baseline in this CHF rat model.
A direct determination of left ventricular function was used for all rats to evaluate the effects of compounds on left ventricular contractility. Right carotid artery catheterization was used for contractility measurements. The rats were anesthetized with an intraperitoneal injection of INACTIN® (Cat #T-133, Sigma, St. Louis, Mo.) (100 mg/kg body weight), and a Millar MIKRO-TIP® pressure catheter (Cat #SPR-320NR, Millar, Inc., Houston, Tex.) was passed through the carotid artery into left ventricle. Left ventricular pressure (LVP) was monitored by LabChart with POWERLAB® Data Acquisition System (ADlnstruments, Sydney, Australia).
Jugular vein catheterization was used for compound administration. A silastic catheter (Cat #427411, BD, Franklin Lakes, N.J.) was introduced into the jugular vein, and a right venous catheter was connected to an automated drug delivery system (11 Plus Syringe Pump, Harvard Apparatus, Holliston, Mass.).
In the normal rats, 3 mg/kg, 10 mg/kg, 30 mg/kg, or 60 mg/kg of test compounds were administered starting 30-45 minutes after catheter implantation. A bolus injection of BRL 37344 (3 μg/kg) was administered via the left jugular vein 15-20 minutes after test compound infusion was started, and five minutes before compound infusion was stopped. A blood sample (800 μl) was then taken from the left venous catheter five minutes after the bolus injection of BRL 37344 (FIG. 25).

[2] = test system: chronic heart failure (CHF) rats; test: Left ventricular contractility in chronic heart failure (CHF) rats; type: in vivo, rat
Description: as §1, with “model. […]” for “model.”
Heart failure was evaluated weekly following surgery by testing impaired left ventricular function by echocardiography. Left ventricle end-diastolic volume (LVEDV) and left ventricle end-systolic volume (LVESV) were measured for at least three consecutive cardiac cycles in long-axis view images. Ejection Fraction (EF %) was calculated using the following formula: EF %=(LVEDV−LVESV)/LVEDV. […]
A direct determination of left ventricular function was used for all rats to evaluate the effects of compounds on left ventricular contractility. […] Left ventricular pressure (LVP) was monitored by LabChart with POWERLAB® Data Acquisition System (ADlnstruments, Sydney, Australia). […]
Development of CHF was monitored by echocardiography in rats after the surgically-induced myocardial infarction. […]

Beta-3 Adrenergic Receptor, sequence (P13945 whole entry, species assumed): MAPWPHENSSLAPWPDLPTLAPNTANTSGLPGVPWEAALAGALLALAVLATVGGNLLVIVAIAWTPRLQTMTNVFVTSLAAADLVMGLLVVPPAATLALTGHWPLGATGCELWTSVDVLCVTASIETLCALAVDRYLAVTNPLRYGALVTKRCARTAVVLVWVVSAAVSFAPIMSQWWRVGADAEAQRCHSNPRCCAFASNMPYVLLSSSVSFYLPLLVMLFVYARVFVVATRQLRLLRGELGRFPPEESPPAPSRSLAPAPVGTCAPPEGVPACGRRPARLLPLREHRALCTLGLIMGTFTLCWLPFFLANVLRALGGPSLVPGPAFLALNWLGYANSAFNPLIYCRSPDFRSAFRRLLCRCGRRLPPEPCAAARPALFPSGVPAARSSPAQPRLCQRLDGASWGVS

IC50 [1] [nM] | Compound | inhibition of the negative effect of beta-3 adrenergic receptor agonist BRL on LVP (normal rats) | contractility compared to baseline ([2]; rat with CHF, infusion 10 mg/kg then 30 mg/kg, 10 minutes each) | inhibition of negative effects of BRL on LVP in a rat with heart failure (figure legend) ([2]; rat with heart failure, FIG. 32)
25.1 | O=S(=O)(CCO)c1cccc(OC[C@@H](O)CN[C@H]2COC3(CCN(S(=O)(=O)c4cnc5ccccc5c4)CC3)C2)c1 [Compound 88, (S)-1-(3-(2-hydroxyethylsulfonyl)phenoxy)-3-((R)-8-(quinolin-3-ylsulfonyl)-1-oxa-8-azaspiro[4.5]decan-3-ylamino)propan-2-ol] | dose-dependently inhibited; also recorded: inhibition of negative effects of BRL on LVP | trend toward improved contractility with increased dosage | inhibition of negative effects of BRL on LVP
53.2 | NC(=O)CS(=O)(=O)c1cccc(OC[C@@H](O)CN[C@H]2COC3(CCN(S(=O)(=O)c4cnc5ccccc5c4)CC3)C2)c1 [Compound 123, 2-(3-((S)-2-hydroxy-3-((R)-8-(quinolin-3-ylsulfonyl)-1-oxa-8-azaspiro[4.5]decan-3-ylamino)propoxy)phenylsulfonyl)acetamide] | dose-dependently inhibited; also recorded: inhibition of negative effects of BRL on LVP | – | –
17.5 | CN1CCOc2ncc(S(=O)(=O)N3CCC4(CC3)C[C@@H](NC[C@H](O)COc3cccc(S(=O)(=O)C5CC5)c3)CO4)cc21 [Compound 154, (S)-1-(3-(cyclopropylsulfonyl)phenoxy)-3-((R)-8-(1-methyl-2,3-dihydro-1H-pyrido[2,3-b][1,4]oxazin-7-ylsulfonyl)-1-oxa-8-azaspiro[4.5]decan-3-ylamino)propan-2-ol] | dose-dependently inhibited; also recorded: inhibition of negative effects of BRL on LVP | – | –
17.3 | CCOc1ccc(-c2ccc(CN)cc2)cc1S(=O)(=O)N1CCC2(CC1)C[C@H](NC[C@H](O)COc1cccc(S(=O)(=O)C3(CO)CC3)c1)CO2 [Compound 163, (S)-1-((S)-8-(4′-(aminomethyl)-4-ethoxybiphenyl-3-ylsulfonyl)-1-oxa-8-azaspiro[4.5]decan-3-ylamino)-3-(3-(1-(hydroxymethyl)cyclopropylsulfonyl)phenoxy)propan-2-ol] | dose-dependently inhibited; also recorded: inhibition of negative effects of BRL on LVP | – | –
37.6 | CCn1cc(S(=O)(=O)N2CCC3(CC2)C[C@@H](NC[C@H](O)COc2cccc(S(C)(=O)=O)c2)CO3)c(=O)c2ccccc21 [Compound 310, 1-ethyl-3-((R)-3-((S)-2-hydroxy-3-(3-(methylsulfonyl)phenoxy)propylamino)-1-oxa-8-azaspiro[4.5]decan-8-ylsulfonyl)quinolin-4(1H)-one] | dose-dependently inhibited; also recorded: inhibition of negative effects of BRL on LVP | – | –
102 | CS(=O)(=O)Cc1cccc(OC[C@@H](O)CN[C@H]2COC3(CCN(S(=O)(=O)c4ccc5ncccc5c4)CC3)C2)c1 [Compound 336, (S)-1-(3-(methylsulfonylmethyl)phenoxy)-3-((R)-8-(quinolin-6-ylsulfonyl)-1-oxa-8-azaspiro[4.5]decan-3-ylamino)propan-2-ol] | – | – | –
1690 | CCn1cc(S(=O)(=O)N2CCC3(CC2)C[C@@H](NC[C@@H](O)COc2cccc(S(C)(=O)=O)c2)CO3)c(=O)c2ccccc21 [Compound 337, 1-ethyl-3-((R)-3-((R)-2-hydroxy-3-(3-(methylsulfonyl)phenoxy)propylamino)-1-oxa-8-azaspiro[4.5]decan-8-ylsulfonyl)quinolin-4(1H)-one] | – | – | –
32.2 | CCn1cc(S(=O)(=O)N2CCC3(CC2)C[C@H](NC[C@H](O)COc2cccc(S(C)(=O)=O)c2)CO3)c(=O)c2ccccc21 [Compound 338, 1-ethyl-3-((S)-3-((S)-2-hydroxy-3-(3-(methylsulfonyl)phenoxy)propylamino)-1-oxa-8-azaspiro[4.5]decan-8-ylsulfonyl)quinolin-4(1H)-one] | – | – | –
